According to US5340929A, “Trisazo dye and dye composition containing the same” (Orient Chemical Industries, Ltd., priority 1992, dated 1994):
Where two headings read alike, the source gives them in different places.

Columns and labels:
[1] = prior art statement, background; cited from earlier work
[2] = prior art statement, background; cited from earlier work; remark: listed apart in the source
strains TA98 [3] = conditions: cited from earlier work
[4] = Water resistance of writing (drawdown paper dipped in tap water, reflection density); assay type: physicochemical; conditions: drawndown paper, 3% dye solution, air-dried one day
Protocol: Light resistance: The resulting dye was dissolved in a 5% aqueous diethylene glycol solution to obtain a 3% dye solution. […] A degree of discoloration was compared with that before testing.
Water resistance: The drawndown paper was air-dried for one day and dipped in tap water.
A: Reflection density is more than 70% of that before testing.
B: Reflection density is 50 to 70% of that before testing.
C: Reflection density is less than 50% that before testing.

strains TA98 [5] = assay type: cell-based
Protocol: Further, the trisazo dye of the present invention is a nontoxic trisazo dye which gives negative results in a back mutation test using an organism, which is generally known as a test method for evaluating toxicity, i.e. AMES test (mutation test).
Evaluation method of Ames test
Regarding various specimen solutions respectively containing a trisazo dyes obtained in Examples 1 to 8 of the present invention and dyes of Comparative Examples 1 to 3, the number of mutant colonies was determined using strains TA98. 2. When the ratio is less than 2, it is "negative" and, when the ratio is more than 2, it is "positive", and the results are shown in Table. 1.

Hue of dye / writing = assay type: physicochemical

SMILES	Light resistance of aqueous ink [1]	Water resistance of aqueous ink [2]	Ames test result (strains TA98 [3])	Writing evaluation: Water resistance [4]	Ames test: ratio of the number of colonies to control (strains TA98 [5]; TA98, S-9 (+), 20 μg/plate)	Ames test: ratio of the number of colonies to control (strains TA98 [5]; TA98, S-9 (+), 78 μg/plate)	Ames test: ratio of the number of colonies to control (strains TA98 [5]; TA98, S-9 (+), 313 μg/plate)	Ames test: ratio of the number of colonies to control (strains TA98 [5]; TA98, S-9 (+), 1250 μg/plate)	Ames test: ratio of the number of colonies to control (strains TA98 [5]; TA98, S-9 (+), 5000 μg/plate)	Ames test: ratio of the number of colonies to control (strains TA98 [5]; TA98, S-9 (-), 20 μg/plate)	Ames test: ratio of the number of colonies to control (strains TA98 [5]; TA98, S-9 (-), 78 μg/plate)	Ames test: ratio of the number of colonies to control (strains TA98 [5]; TA98, S-9 (-), 313 μg/plate)	Ames test: ratio of the number of colonies to control (strains TA98 [5]; TA98, S-9 (-), 1250 μg/plate)	Ames test: ratio of the number of colonies to control (strains TA98 [5]; TA98, S-9 (-), 5000 μg/plate)	Hue (Hue of dye / writing)	Hue (Hue of dye / writing; listed as Comp. Example 2)	Ames test result (strains TA98 [3]; prior art statement, background)	Hue (Hue of dye / writing; listed as Comp. Example 3)
Nc1cc2c(O)c(N=Nc3ccc(N=Nc4ccc(S(=O)(=O)[O-])cc4)c4ccc(S(=O)(=O)[O-])cc34)c(S(=O)(=O)[O-])cc2cc1S(=O)(=O)[O-].[Na+].[Na+].[Na+].[Na+] [Food Black 2]	poor	poor																
Nc1ccc(N=Nc2ccc(N=Nc3c(S(=O)(=O)[O-])cc4cc(S(=O)(=O)[O-])c(N=Nc5ccc(N=Nc6ccc(N)cc6N)cc5)c(O)c4c3N)cc2)c(N)c1.[Na+].[Na+] [compound 2, C.I. Direct Black 19, reference compound]			false positive or positive	A (Reflection density is more than 70% of that before testing.)	8.33	24.2	75.0	52.8	4.00	0.92	0.88	1.48	2.24	2.84	Yellowish	yellowish black		
Cc1cc(-c2ccc(N=Nc3c(S(=O)(=O)[O-])cc4cc(S(=O)(=O)[O-])c(N=Nc5ccccc5)c(O)c4c3N)c(C)c2)ccc1N=Nc1ccc(N)cc1N.[Na+].[Na+] [compound 3, C.I. Direct Black 154, reference compound]				B (Reflection density is 50 to 70% of that before testing.)	1.92	2.35	2.50	1.50	0.85	0.72	0.68	0.84	0.76	0.96	Greenish		false positive or positive	greenish black
